# Test results: PMC5025780, “Copper(II) ions affect the gating dynamics of the 20S proteasome: a molecular and in cell study” (Scientific Reports, 2016)
# Like-named read-outs stand apart in the source and are kept apart here.
# Columns and labels:
# [1] = target: T1, human 20S proteasome (hCP), T-L activity; assay: T-L peptidase activity of isolated hCP (fluorogenic substrate); type: biochemical
# T1 construct: purchased Boston Biochem (Cambridge, MA, USA)
# Excerpt: (§1) Purified human 20S proteasome (hCP) and the fluorogenic substrates Suc-LLVY-AMC, Z-Leu-Leu-Glu-AMC, and Ac-Arg-Leu-Arg-AMC used to assay the ChT-L, T-L, and C-L activity, were from Boston Biochem (Cambridge, MA, USA). Bathocuproinedisulfonic acid disodium salt (BCS), dithiothreitol (DTT), N-Acetyl-L-Cysteine (NAC), Sodium dodecylsulphate (SDS) as well as CuCl2 and Zn(NO3)2 were from Sigma-Aldrich (St. Louis, MO). Proteasome inhibitors Epoxomicin were obtained from Enzo Life Science. Wild type 20S proteasome isolated from Saccharomices Cerevisiae (yCP) and a mutant (α3ΔN) where nine residues of the N-terminal tail of the α3 subunit are deleted to provide a permanently open-gate conformations were isolated as described elsewhere.
# (§2) Peptidase activities of hCP (2 nM) were assayed on in 50 μL Tris 25 mM pH 7.6, at 37 °C with 100 μM of the fluorogenic substrate. hCP was incubated with Cu(II)/Zn(II) ions for 1 h prior activity assays. The fluorescence signal activated by peptide cleavage was recorded at 440 nm (excitation at 360 nm) for 45 min, by a Varioskan (Thermo^©) plate reader in 384 multiwell plates. Three replicates were performed for each data point. Data were reported as normalized percentages of residual activity. The potency (IC50) was calculated from the value of the dose response plot corresponding at a fractional activity of 50%. The IC50 values were determined using a non linear fit of experimental data in according to equation: […]
# (§3) The midpoint of this function occurs at a fractional activity value of 50%, corresponding to half inhibition of the target enzyme. The IC50 values and their standard errors were deduced from the fitting. To evaluate if copper is a reversible PI, we measured the ChT-L activity of hCP incubated with Cu(II) (2.20 μM) before and after addition of an equimolar amount of EDTA.
# 20S proteasome (CP) gate = tested on: T2, 20S proteasome (CP) gate; assay: Steady-state Trp fluorescence of SDS-activated 20S proteasome (gating); design: species or system human; details: 100 μM Cu(II) added to SDS-activated CP (0.018% SDS), pH 7.6, 37 °C
# T2 construct: purchased Boston Biochem (Cambridge, MA, USA)
# Experimental: In particular, fluorescence spectra of the isolated 20S proteasome may be deconvoluted into two components. The first of these bands is ascribable to Trp13(α6) residues which are located at the entrance of the channel. Therefore, a red-shift of the first component may be associated to a gate opening of the 20S proteasome. Here, we exploited this effect to investigate the role of Cu(II) ions in CP gate closing. […] Next, we recorded the fluorescence spectra obtained immediately (t = 0 min) and after 30 min the addition of 100 μM Cu(II) ions to the SDS-activated CP and deconvoluted the fluorescence spectra into the contributions from each type of tryptophan as described in the experimental section (see Fig. 3 panel A). […]
# Fluorescence emission spectra of purified 20S proteasomes (1.5 μM) in a MOPS buffer 10 mM, 0.018% SDS, pH 7.6 were recorded at 37 °C over time prior to and following addition of Cu(II) (100 μM). […] The final fluorescence spectra represent averages of at least three measurements. […] Fluorescence spectra were recorded on a Horiba Fluoromax-4 spectrofluorimeter from 300 to 400 nm in 1-nm steps, at an excitation wavelength λexc = 295 nm. Deconvolution of fluorescence spectra into the log-normal components was performed according to the algorithms integrated into the web-based toolkit PFAST (http://pfast.phys.edu/)[43]. […]
# [2] = target: T3, human 20S proteasome (hCP), ChT-L activity; assay: ChT-L peptidase activity of isolated hCP (Suc-LLVY-AMC fluorogenic substrate); type: biochemical
# T3 construct: purchased Boston Biochem (Cambridge, MA, USA)
# Excerpt: as §1, §2, §3
structure (smiles),measurement,setting,value
"[Cl][Cu][Cl] [Cu(II), CuCl2]",IC50,"[1]; hCP 2 nM, 1 h preincubation with ions, Tris 25 mM pH 7.6, 37 °C, no SDS, read-out: IC50 T-L",1.45 µM
same,IC50,"[1]; in the presence of 0.018% SDS, other conditions unmodified, read-out: IC50 T-L, Cu(II) + SDS",1.35 µM
same,Red shift of first Trp fluorescence component (gate opening),20S proteasome (CP) gate,decreased rate of red-shift
same,IC50,"[2]; hCP 2 nM, 1 h preincubation with ions, Tris 25 mM pH 7.6, 37 °C, no SDS, read-out: IC50 ChT-L",1.19 µM
same,Recovery of ChT-L activity after EDTA addition (reversibility),"[2]; hCP incubated with Cu(II) 2.20 μM, equimolar EDTA added",did not evidence any recovery of the ChT-L activity
same,IC50,"[2]; in the presence of 0.018% SDS, other conditions unmodified, read-out: IC50 ChT-L, Cu(II) + SDS",0.73 µM
